Reference: PMC5408782, “Engineering bacterial thiosulfate and tetrathionate sensors for detecting gut inflammation” (Molecular Systems Biology, 2017)

Key:
[1] = target: T1, ThsSR (ThsS/R; Shal_3128/9) (Shewanella halifaxensis, UniProt B0TQ83); test: sfGFP reporter, flow cytometry, repression transfer function; type: cell-based; conditions: read-out: half-maximal inhibition
T1 construct: E. coli codon-optimised ThsS (pKD182, IPTG-inducible) and ThsR (pKD184, aTc-inducible) in E. coli BW28357; PphsA342-sfGFP reporter; membrane histidine kinase with PhnD-like periplasmic sensor domain; with Thiosulfate response regulator ThsR
T1 sequence (B0TQ83 1-594): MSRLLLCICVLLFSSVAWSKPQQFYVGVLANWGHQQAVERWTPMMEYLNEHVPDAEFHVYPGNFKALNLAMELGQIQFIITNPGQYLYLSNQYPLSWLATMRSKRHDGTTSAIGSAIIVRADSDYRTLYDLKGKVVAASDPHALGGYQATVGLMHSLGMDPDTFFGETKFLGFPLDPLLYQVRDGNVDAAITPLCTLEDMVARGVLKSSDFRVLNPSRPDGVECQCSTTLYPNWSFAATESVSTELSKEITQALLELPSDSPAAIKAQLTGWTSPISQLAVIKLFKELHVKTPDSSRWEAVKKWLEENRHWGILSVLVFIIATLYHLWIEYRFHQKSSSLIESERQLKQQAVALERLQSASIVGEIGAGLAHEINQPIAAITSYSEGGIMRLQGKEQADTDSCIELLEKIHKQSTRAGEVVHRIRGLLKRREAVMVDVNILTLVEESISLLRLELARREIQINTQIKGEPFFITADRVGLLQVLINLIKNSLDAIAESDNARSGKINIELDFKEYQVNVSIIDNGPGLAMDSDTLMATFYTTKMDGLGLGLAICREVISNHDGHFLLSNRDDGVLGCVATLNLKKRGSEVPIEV

[2] = system: T2, S. baltica TtrSR (Sbal195_3859/8); test: sfGFP reporter, flow cytometry, Hill fit; type: cell-based, Shewanella baltica; conditions: E. coli BW28357, aerobic, M9 + glycerol, 37°C, 10 μM IPTG; PttrB185-269 reporter; activation; read-out: k 1/2
T2 construct: gene ttrS; E. coli codon-optimised TtrS (pKD227, IPTG-inducible) and TtrR (pKD226, aTc-inducible) in E. coli BW28357; PttrB185-269-sfGFP reporter; with Tetrathionate response regulator TtrR

[3] = target: T1, ThsSR (ThsS/R; Shal_3128/9); test: sfGFP reporter, flow cytometry, Hill fit; type: cell-based; conditions: read-out: k 1/2

Row | IC50 [1] | EC50 [2] | EC50 [3] | SMILES
1 | 390 ± 10 µM |  |  | O=S(O)O [sulfite]
2 | 550 ± 20 µM | 50 ± 3 µM |  | O=S(=O)(O)SSS(=O)(=O)O [tetrathionate]
3 |  |  | 280 ± 10 µM | O=S(O)(O)=S [thiosulfate]
